# Data published in article PMC11418212, “Characterization of four structurally diverse inhibitors of SUR2-containing KATP channels” (Channels, 2024).
# Values joined by “and” are separate entries in the source; they are usually repeats but may differ in a detail not shown here. Equal entries are not always repeated. “Also recorded” adds a separate entry of the source. Where two headings read alike, the source gives them in different places.
# How the values were obtained:
# Assay type in all cases: cell-based
# [1] = molecular target: T1, Kir6.1/SUR2B (Homo sapiens, UniProt O60706); assay: Quantitative thallium flux assay, inhibition, stably transfected T-REx-HEK293 cells
# T1 construct: expressed in transfected cells; Kir6.1 tetracycline-inducible, SUR2B constitutive
# [2] = molecular target: T1, Kir6.1/SUR2B; assay: Thallium flux activation dose-response without channel pre-activation; settings: no channel pre-activation; doses up to 30 µM
# Description: (§1) Thallium flux assays were conducted using the established methods. Stably transfected T-REx-HEK-293 cells expressing Kir6.2/SUR1 or Kir6.1/SUR2B were cultured overnight in polyamine-coated plates (black-walled, clear-bottomed; BD, Bedford, MA) at a density of 20,000 cells in 20 µl per well of cell culture media. The expression of Kir6.2/SUR1 or Kir6.1/SUR2B channels was induced by treating cells with 1 µg/ml tetracycline overnight. The following day, cells were rinsed with an assay buffer (Hanks’ Balanced Salt Solution supplied with 20 mM HEPES), loaded with the thallium-sensor dye Brilliant Thallos-AM AM (Ion Bioscience, San Marcos, TX) for 1 h, and then washed again with assay buffer to remove unincorporated dye. The cell plate was subsequently placed in a Panoptic Kinetic Imaging Plate Reader (Wavefront Bioscience, Franklin, TN) and imaged at a frequency of 1 Hz using 482/35 nm (excitation) and 536/40 nm (emission) filter sets. Kir6.1/SUR2B channels were activated with 10 µM pinacidil, whereas Kir6.1/SUR1 was activated with 30 µM VU0071063 [34]. To activate KATP channels independent of activators with ATP-depletion method, cells were treated with a cocktail of metabolic inhibitors (2.5 mM sodium cyanide and 20 mM 2-deoxy glucose) for 25 min before imagine. Control and test compounds diluted freshly from DMSO stocks into assay buffer were added to wells for four minutes before adding 0.5 mM chloride-free thallium stimulus buffer (Ion Bioscience) to initiate thallium flux through the expressed KATP channels. Thallium flux was recorded from all 384-wells for 2 min before terminating the experiment. […] Selectivity assays against other Kir channels were performed as described previously.
# (§2) We therefore systematically explored this possibility in dose–response experiments against Kir6.2/SUR1 in the absence of channel pre-activation. Kir6.1/SUR2B was also evaluated for comparison.
# (§3) Figure 6. Paradoxical activation of Kir6.2/SUR1. […] Fluorescence intensity at each dose was normalized to that in the absence of drug. […] (b) Activities of indicated compounds at 30 μM toward Kir6.1/SUR2B normalized to that of 30 μM pinacidil. […] (d) Activities of indicated compounds at 30 μM toward Kir6.2/SUR1 normalized to that of 30 μM VU0071063.
# [3] = molecular target: Kir6.2/SUR1 (Homo sapiens, UniProt Q09428); assay: as above; settings: no channel pre-activation; doses up to 30 µM
# Description: as §1, §2, §3
# [4] = ATP depletion with sodium cyanide and 2-deoxy-glucose, read-out: IC50 Kir6.1/SUR2B, ATP depletion
# [5] = channels activated with 10 µM pinacidil, read-out: IC50 Kir6.1/SUR2B, pinacidil activation
# Kir6.2/SUR1, sequence (Q09428 whole entry, species assumed): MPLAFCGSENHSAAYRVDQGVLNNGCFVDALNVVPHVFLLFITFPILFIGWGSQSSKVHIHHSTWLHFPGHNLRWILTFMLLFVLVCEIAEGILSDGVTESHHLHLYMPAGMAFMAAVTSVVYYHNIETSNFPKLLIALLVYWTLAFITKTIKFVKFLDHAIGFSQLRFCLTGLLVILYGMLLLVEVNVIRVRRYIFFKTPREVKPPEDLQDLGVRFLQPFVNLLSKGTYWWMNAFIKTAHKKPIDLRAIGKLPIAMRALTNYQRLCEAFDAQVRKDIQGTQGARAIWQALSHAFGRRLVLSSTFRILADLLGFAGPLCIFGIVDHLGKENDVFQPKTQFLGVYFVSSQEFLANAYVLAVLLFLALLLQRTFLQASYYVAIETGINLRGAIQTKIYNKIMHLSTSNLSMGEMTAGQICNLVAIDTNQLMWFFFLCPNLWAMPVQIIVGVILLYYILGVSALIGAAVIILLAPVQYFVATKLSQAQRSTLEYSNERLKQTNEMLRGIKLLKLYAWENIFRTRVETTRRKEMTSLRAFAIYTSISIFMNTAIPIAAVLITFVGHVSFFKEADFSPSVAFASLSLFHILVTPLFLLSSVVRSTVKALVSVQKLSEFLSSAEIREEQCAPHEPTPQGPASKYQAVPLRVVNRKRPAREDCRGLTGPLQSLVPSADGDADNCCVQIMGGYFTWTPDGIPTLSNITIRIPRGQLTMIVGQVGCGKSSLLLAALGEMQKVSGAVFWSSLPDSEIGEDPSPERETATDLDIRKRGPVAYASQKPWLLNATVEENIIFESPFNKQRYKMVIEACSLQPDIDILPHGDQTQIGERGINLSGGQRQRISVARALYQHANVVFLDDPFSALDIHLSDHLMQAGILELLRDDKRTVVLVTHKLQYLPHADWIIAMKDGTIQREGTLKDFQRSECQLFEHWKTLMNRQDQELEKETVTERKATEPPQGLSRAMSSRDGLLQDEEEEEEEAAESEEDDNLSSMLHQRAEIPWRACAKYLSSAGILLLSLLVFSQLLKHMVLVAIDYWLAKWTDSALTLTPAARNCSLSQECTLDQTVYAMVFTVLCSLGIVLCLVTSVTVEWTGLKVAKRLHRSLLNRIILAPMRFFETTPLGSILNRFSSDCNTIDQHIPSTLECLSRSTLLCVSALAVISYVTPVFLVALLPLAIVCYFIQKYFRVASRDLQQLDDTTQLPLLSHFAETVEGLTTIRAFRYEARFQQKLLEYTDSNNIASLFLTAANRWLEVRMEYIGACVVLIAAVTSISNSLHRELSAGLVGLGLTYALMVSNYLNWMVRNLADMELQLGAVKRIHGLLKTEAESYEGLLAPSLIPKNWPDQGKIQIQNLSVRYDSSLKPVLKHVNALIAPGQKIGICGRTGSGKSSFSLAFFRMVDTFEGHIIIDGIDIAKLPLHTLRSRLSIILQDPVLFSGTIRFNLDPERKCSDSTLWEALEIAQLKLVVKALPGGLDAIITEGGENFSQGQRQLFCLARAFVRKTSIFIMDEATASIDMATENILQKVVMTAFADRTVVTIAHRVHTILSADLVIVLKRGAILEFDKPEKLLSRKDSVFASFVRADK
# Kir6.2/SUR1, sequence (Q14654 whole entry partner, species assumed): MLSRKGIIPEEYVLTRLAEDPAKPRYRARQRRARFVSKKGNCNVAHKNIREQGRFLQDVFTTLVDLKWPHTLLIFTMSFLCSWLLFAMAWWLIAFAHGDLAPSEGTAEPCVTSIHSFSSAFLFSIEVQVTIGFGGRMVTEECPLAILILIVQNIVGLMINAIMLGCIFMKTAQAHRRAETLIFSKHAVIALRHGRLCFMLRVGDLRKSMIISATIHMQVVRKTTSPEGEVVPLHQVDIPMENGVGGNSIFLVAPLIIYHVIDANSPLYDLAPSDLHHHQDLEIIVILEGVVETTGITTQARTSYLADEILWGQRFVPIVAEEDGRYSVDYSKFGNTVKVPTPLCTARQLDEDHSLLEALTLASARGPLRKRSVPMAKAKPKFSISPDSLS
# T1 sequence (O60706 1-1549 isoform O60706-2, species assumed): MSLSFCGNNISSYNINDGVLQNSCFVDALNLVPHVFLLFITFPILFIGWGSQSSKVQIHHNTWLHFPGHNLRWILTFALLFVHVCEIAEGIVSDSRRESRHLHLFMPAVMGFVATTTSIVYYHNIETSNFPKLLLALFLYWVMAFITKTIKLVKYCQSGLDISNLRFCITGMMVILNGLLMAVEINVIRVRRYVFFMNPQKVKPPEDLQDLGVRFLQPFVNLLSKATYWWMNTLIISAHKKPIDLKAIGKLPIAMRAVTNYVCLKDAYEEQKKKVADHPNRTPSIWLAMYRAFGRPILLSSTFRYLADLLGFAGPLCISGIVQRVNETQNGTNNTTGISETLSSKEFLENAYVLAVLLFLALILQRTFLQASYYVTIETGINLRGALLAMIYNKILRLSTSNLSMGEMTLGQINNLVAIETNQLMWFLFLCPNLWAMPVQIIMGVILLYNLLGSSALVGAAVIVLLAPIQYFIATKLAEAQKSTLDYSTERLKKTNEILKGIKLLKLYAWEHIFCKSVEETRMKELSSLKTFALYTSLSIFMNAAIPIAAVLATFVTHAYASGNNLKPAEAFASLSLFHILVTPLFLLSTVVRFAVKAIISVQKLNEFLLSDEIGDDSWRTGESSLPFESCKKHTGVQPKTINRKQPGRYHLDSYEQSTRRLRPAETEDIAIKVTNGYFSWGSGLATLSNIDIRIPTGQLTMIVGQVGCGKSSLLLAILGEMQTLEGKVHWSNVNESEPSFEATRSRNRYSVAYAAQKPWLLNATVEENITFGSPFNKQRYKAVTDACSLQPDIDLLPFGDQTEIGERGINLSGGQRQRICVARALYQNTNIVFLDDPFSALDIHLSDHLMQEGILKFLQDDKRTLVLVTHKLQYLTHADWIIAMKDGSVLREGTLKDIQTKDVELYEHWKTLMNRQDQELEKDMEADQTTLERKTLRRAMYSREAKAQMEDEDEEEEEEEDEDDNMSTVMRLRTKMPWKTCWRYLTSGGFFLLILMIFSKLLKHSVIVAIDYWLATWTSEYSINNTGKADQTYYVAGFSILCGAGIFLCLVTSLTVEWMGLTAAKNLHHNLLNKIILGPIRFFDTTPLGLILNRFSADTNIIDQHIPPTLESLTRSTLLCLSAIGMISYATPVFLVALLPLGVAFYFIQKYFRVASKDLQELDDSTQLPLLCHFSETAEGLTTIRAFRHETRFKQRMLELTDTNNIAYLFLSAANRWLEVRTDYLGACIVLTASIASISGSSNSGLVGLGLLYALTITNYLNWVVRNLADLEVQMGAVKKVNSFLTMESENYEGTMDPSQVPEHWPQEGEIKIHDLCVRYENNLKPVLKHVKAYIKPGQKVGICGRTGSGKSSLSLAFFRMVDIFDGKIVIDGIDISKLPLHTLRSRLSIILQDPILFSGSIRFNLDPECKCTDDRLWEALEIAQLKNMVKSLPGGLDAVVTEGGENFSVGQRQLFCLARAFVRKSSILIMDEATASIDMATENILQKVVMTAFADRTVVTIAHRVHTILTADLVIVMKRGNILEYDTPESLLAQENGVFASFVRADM
# T1 sequence (Q15842 whole entry partner, species assumed): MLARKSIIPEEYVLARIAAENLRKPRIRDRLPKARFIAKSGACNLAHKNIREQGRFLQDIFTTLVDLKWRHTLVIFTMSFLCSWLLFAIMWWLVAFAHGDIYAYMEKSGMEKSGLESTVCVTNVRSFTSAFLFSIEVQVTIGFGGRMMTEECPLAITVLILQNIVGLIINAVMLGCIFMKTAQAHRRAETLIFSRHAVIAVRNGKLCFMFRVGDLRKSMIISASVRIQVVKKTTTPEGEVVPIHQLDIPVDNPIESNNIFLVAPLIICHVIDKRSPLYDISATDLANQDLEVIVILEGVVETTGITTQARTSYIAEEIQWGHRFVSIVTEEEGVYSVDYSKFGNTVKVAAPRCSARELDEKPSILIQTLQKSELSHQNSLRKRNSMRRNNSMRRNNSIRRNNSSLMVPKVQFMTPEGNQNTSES
Compound,"IC50 [1, 4]","IC50 [1, 5]",Activation of Kir6.1/SUR2B [2],Activation of Kir6.2/SUR1 [3]
"O=C(NCc1cc(-c2ccncc2)n(C2CCCC2)n1)Nc1cccs1 [VU0544086, 1-((1-cyclopentyl-5-(pyridin-4-yl)-1 H-pyrazol-3-yl)methyl)-3-(thiophen-2-yl)urea]",1000 nM,1000 nM,failed to activate,failed to activate
"O=C(NCC(O)(c1ccccc1)C(F)(F)F)c1ccc(OC(F)(F)F)cc1 (stereo not shown) [VU0543336, N-(3,3,3-trifluoro-2-hydroxy-2-phenylpropyl)-4-(trifluoromethoxy)benzamide]",126 nM and 100 nM,271 nM and 300 nM,failed to activate,dose-dependently activated; also recorded: induced dose-dependent Kir6.2/SUR1 activation; also recorded: activate Kir6.2/SUR1 at higher drug doses
"O=C1c2oc3ccccc3c(=O)c2C(c2cccc(Br)c2)N1CCO (stereo not shown) [VU0605768, 1-(3-bromophenyl)-2-(2-hydroxyethyl)-1,2-dihydrochromeno[2,3-c]pyrrole-3,9-dione]",779 nM,479 nM,failed to activate,dose-dependently activated; also recorded: induced dose-dependent Kir6.2/SUR1 activation; also recorded: activate Kir6.2/SUR1 at higher drug doses
"c1ccc2[nH]c(CSc3ncnc4c3oc3ccccc34)nc2c1 [VU0212387, 4-(((1 H-benzo[d]imidazol-2-yl)methyl)thio)benzofuro[3,2-d]pyrimidine]",619 nM and 600 nM,1400 nM,failed to activate,dose-dependently activated; also recorded: induced dose-dependent Kir6.2/SUR1 activation; also recorded: activate Kir6.2/SUR1 at higher drug doses
